Assay results reported in patent US8551999B2, “Heterocyclic compound and pharmaceutical composition thereof” (Otsuka Pharmaceutical Co., Ltd., priority 2007, dated 2013).

Question: With `Cl.Cn1c(C(=O)N2CCN(Cc3ccc(OC(F)F)cc3)CC2)cc2ccc(Oc3ccc(NC(=O)c4ccc(C(F)(F)F)cc4F)cn3)cc21` as the molecule, how does the melting point read?
Answer: 265.3 to 265.8 °C

Question: With `Br.Cn1c(C(=O)N2CCN(Cc3ccc4c(c3)OCO4)CC2)cc2ccc(Oc3ccc(NC(=O)c4ccc(C(F)(F)F)cc4)cn3)cc21` [Example 454, N-{6-[2-(4-Benzo[1,3]dioxol-5-ylmethylpiperazine-1-carbonyl)-1-methyl-1H-indol-6-yloxy]pyridin-3-yl}-4-trifluoromethylbenzamide hydrobromide] as the molecule, how does the melting point read?
Answer: 264 to 265.6 °C

Question: With `Cn1c(C(=O)N2CCN(C3CCOCC3)CC2)cc2cc(Oc3ccc(NS(=O)(=O)c4ccc(Cl)c(Cl)c4)cn3)ccc21` [Example 331, 3,4-Dichloro-N-(6-{1-methyl-2-[4-(tetrahydropyran-4-yl)-piperazine-1-carbonyl]-1H-indol-5-yloxy}pyridin-3-yl)-benzenesulfonamide] as the molecule, how does the melting point read?
Answer: 208 to 210 °C

Question: For `Br.CCOc1cccc(CN2CCN(C(=O)c3cc4cc(Oc5ccc(NC(=O)c6ccc(Cl)c(Cl)c6)cn5)ccc4n3C)CC2)c1` [Example 373, 3,4-Dichloro-N-(6-{2-[4-(3-ethoxybenzyl)piperazine-1-carbonyl]-1-methyl-1H-indol-5-yloxy}pyridin-3-yl)benzamide hydrobromide], which melting point is on record?
Answer: 225 to 227 °C

Question: Which melting point does the source give for `Br.Br.COc1ccc(CN2CCN(C(=O)c3cc4cc(Oc5ccc(NC(=O)c6ccc(C(F)(F)F)cn6)cn5)ccc4n3C)CC2)cc1` [Example 230, 5-Trifluoromethylpyridine-2-carboxylic acid (6-{2-[4-(4-methoxy-benzyl)piperazine-1-carbonyl]-1-methyl-1H-indol-5-yloxy}pyridin-3-yl)amide dihydrobromide] here?
Answer: 241 to 243 °C

Question: Which melting point does the source give for `COc1ccc(CN2CCN(C(=O)c3cc4cc(Oc5ccc(N(C)C(=O)c6ccc(OC(F)(F)F)cc6)cn5)ccc4n3C)CC2)cc1.O=C(O)/C=C\C(=O)O` [Example 18, N-(6-{2-[4-(4-Methoxybenzyl)piperazine-1-carbonyl]-1-methyl-1H-indol-5-yloxy}pyridin-3-yl)-N-methyl-4-trifluoromethoxybenzamide maleate] here?
Answer: 147 to 148 °C

Question: With `CC(C)Cc1ccc(CN2CCN(C(=O)c3cc4cc(Oc5ccc(N(C)C(=O)c6ccc(C(F)(F)F)cc6)cn5)ccc4n3C)CC2)cc1.O=C(O)/C=C\C(=O)O` [Example 416, N-(6-{2-[4-(4-Isobutylbenzyl)piperazine-1-carbonyl]-1-methyl-1H-indol-5-yloxy}pyridin-3-yl)-N-methyl-4-trifluoromethylbenzamide maleate] as the molecule, how does the melting point read?
Answer: 147 to 149 °C

Question: For `Br.CC(C)Oc1ccc(CN2CCN(C(=O)c3cc4ccc(Oc5ccc(NC(=O)c6ccc(Cl)c(Cl)c6)cn5)cc4n3C)CC2)c(F)c1` [Example 265, 3,4-Dichloro-N-(6-{2-[4-(2-fluoro-4-isopropoxybenzyl)piperazine-1-carbonyl]-1-methyl-1H-indol-6-yloxy}pyridin-3-yl)benzamide hydrobromide], which melting point is on record?
Answer: 242.5 to 246.7 °C

Question: With `Cc1ccc(S(=O)(=O)N(C)c2ccc(Oc3ccc4cc(C(=O)N5CCN(Cc6ccc(OCCF)cc6)CC5)n(C)c4c3)nc2)cc1` [Example 531, N-[6-(2-{4-[4-(2-Fluoroethoxy)benzyl]piperazine-1-carbonyl}-1-methyl-1H-indol-6-yloxy)pyridin-3-yl]-4,N-dimethylbenzene-sulfonamide] as the molecule, how does the melting point read?
Answer: 138.7 to 139.8 °C

Question: For `CCCOc1ccc(CN2CCN(C(=O)c3cc4ccc(Oc5ccc(N(C)C(=O)c6ccc(C)cc6)cn5)cc4n3C)CC2)cc1.Cl`, which melting point is on record?
Answer: 231.2 to 231.8 °C

Question: With `CCOc1cccc(CN2CCN(C(=O)c3cc4cc(Oc5ccc(N(C)C(=O)c6ccc(Cl)c(Cl)c6)cn5)ccc4n3C)CC2)c1.O=C(O)/C=C\C(=O)O` [Example 374, 3,4-Dichloro-N-(6-{2-[4-(3-ethoxybenzyl)piperazine-1-carbonyl]-1-methyl-1H-indol-5-yloxy}pyridin-3-yl)-N-methylbenzamide maleate] as the molecule, how does the melting point read?
Answer: 99 to 100 °C

Question: With `COc1ccc(CN2CCN(C(=O)c3cc4cccc(Oc5ccc(N(C)C(=O)c6ccc(C(F)(F)F)cc6)cn5)c4n3C)CC2)cc1.O=C(O)C(=O)O` [Example 323, N-(6-{2-[4-(4-Methoxybenzyl)piperazine-1-carbonyl]-1-methyl-1H-indol-7-yloxy}pyridin-3-yl)-N-methyl-4-trifluoromethylbenzamide oxalate] as the molecule, how does the melting point read?
Answer: 134 to 135 °C

Question: Which melting point does the source give for `CC(C)Oc1ccc(CN2CCN(C(=O)c3cc4ccc(Oc5ccc(NC(=O)c6ccc(C(F)(F)F)cc6F)cn5)cc4n3C)CC2)cc1.Cl` here?
Answer: 267.6 to 268.2 °C

Question: Which melting point does the source give for `COc1ccc(CN2CCN(C(=O)c3cc4c(Oc5ccc(N(C)C(=O)c6ccc(C(F)(F)F)cc6)cn5)cccc4n3C)CC2)cc1.O=C(O)C(=O)O` [Example 325, N-(6-{2-[4-(4-Methoxybenzyl)piperazine-1-carbonyl]-1-methyl-1H-indol-4-yloxy}pyridin-3-yl)-N-methyl-4-trifluoromethylbenzamide oxalate] here?
Answer: 139 to 141 °C

Question: With `Br.COCc1ccc(CN2CCN(C(=O)c3cc4cc(Oc5ccc(NC(=O)c6ccc(Cl)c(Cl)c6)cn5)ccc4n3C)CC2)cc1` [Example 375, 3,4-Dichloro-N-(6-{2-[4-(4-methoxymethylbenzyl)piperazine-1-carbonyl]-1-methyl-1H-indol-5-yloxy}pyridin-3-yl)benzamide hydrobromide] as the molecule, how does the melting point read?
Answer: 244 to 249 °C (dec.)

Question: For `COCc1ccc(CN2CCN(C(=O)c3cc4cc(Oc5ccc(N(C)C(=O)c6ccc(Cl)c(Cl)c6)cn5)ccc4n3C)CC2)cc1.O=C(O)/C=C\C(=O)O` [Example 376, 3,4-Dichloro-N-(6-{2-[4-(4-methoxymethylbenzyl)piperazine-1-carbonyl]-1-methyl-1H-indol-5-yloxy}pyridin-3-yl)-N-methyl-benzamide maleate], which melting point is on record?
Answer: 100 to 101 °C

Question: Which melting point does the source give for `CCCOc1ccc(CN2CCN(C(=O)c3cc4ccc(Oc5ccc(NC(=O)c6ccc(C(F)(F)F)cc6F)cn5)cc4n3C)CC2)cc1.Cl` here?
Answer: 264 to 266.3 °C

Question: With `Br.COc1cccc(CN2CCN(C(=O)c3cc4cc(Oc5ccc(N(C)C(=O)c6ccc(C(F)(F)F)cc6)cn5)ccc4n3C)CC2)c1` [Example 351, N-(6-{2-[4-(3-Methoxybenzyl)piperazine-1-carbonyl]-1-methyl-1H-indol-5-yloxy}pyridin-3-yl)-N-methyl-4-trifluoromethylbenzamide hydrobromide] as the molecule, how does the melting point read?
Answer: 217 to 219 °C

Question: For `Cc1ccc(S(=O)(=O)N(C)c2ccc(Oc3ccc4cc(C(=O)N5CCN(Cc6ccc(OCC(F)(F)F)cc6)CC5)n(C)c4c3)nc2)cc1.Cl`, which melting point is on record?
Answer: 246.4 to 247.2 °C

Question: For `Cl.Cn1c(C(=O)N2CCN(Cc3ccc(OCC(F)(F)F)cc3)CC2)cc2ccc(Oc3ccc(NC(=O)c4ccc(C(F)(F)F)c(F)c4)cn3)cc21`, which melting point is on record?
Answer: 259 to 263.2 °C

Question: With `Br.CN(C(=O)c1ccc(C(F)(F)F)cc1)c1ccc(Oc2ccc3cc(C(=O)N4CCN(Cc5ccc(OC(F)(F)C(F)F)cc5)CC4)n(C)c3c2)nc1` [Example 443, N-Methyl-N-[6-(1-methyl-2-{4-[4-(1,1,2,2-tetrafluoroethoxy)-benzyl]piperazine-1-carbonyl}-1H-indol-6-yloxy)pyridin-3-yl]-4-trifluoromethylbenzamide hydrobromide] as the molecule, how does the melting point read?
Answer: 245.4 to 247.6 °C

Question: With `CCCOc1ccc(CN2CCN(C(=O)c3cc4ccc(Oc5ccc(N(C)S(=O)(=O)c6ccc(C)cc6)cn5)cc4n3C)CC2)cc1` [Example 32, 4,N-Dimethyl-N-(6-{1-methyl-2-[4-(4-propoxybenzyl)piperazine-1-carbonyl]-1H-indol-6-yloxy}pyridin-3-yl)benzenesulfonamide] as the molecule, how does the melting point read?
Answer: 135.9 to 136.8 °C

Question: Which melting point does the source give for `CN(C(=O)c1ccc(C(F)(F)F)cc1)c1ccc(Oc2ccc3c(c2)cc(C(=O)N2CCN(C(=O)c4ccc(C#N)cc4)CC2)n3C)nc1` [Example 242, N-(6-{2-[4-(4-Cyanobenzoyl)piperazine-1-carbonyl]-1-methyl-1H-indol-5-yloxy}pyridin-3-yl)-N-methyl-4-trifluoromethylbenzamide] here?
Answer: 135 to 137 °C

Question: For `Br.CN(C(=O)c1ccc(Cl)c(Cl)c1)c1ccc(Oc2ccc3cc(C(=O)N4CCN(Cc5ccc6c(c5)OC(F)(F)O6)CC4)n(C)c3c2)nc1` [Example 489, 3,4-Dichloro-N-(6-{2-[4-(2,2-difluorobenzo[1,3]dioxol-5-yl-methyl)piperazine-1-carbonyl]-1-methyl-1H-indol-6-yloxy}pyridin-3-yl)-N-methylbenzamide hydrobromide], which melting point is on record?
Answer: 225.4 to 227.1 °C

Question: With `Br.Cc1cc(CN2CCN(C(=O)c3cc4cc(Oc5ccc(NC(=O)c6ccc(C(F)(F)F)cc6)cn5)ccc4n3C)CC2)no1` [Example 569, N-(6-{1-Methyl-2-[4-(5-methylisoxazol-3-ylmethyl)piperazine-1-carbonyl]-1H-indol-5-yloxy}pyridin-3-yl)-4-trifluoromethyl-benzamide hydrobromide] as the molecule, how does the melting point read?
Answer: 220 to 223 °C

Question: For `COc1ccc(C(=O)N2CCN(C(=O)c3cc4cc(Oc5ccc(N(C)C(=O)c6ccc(C(F)(F)F)cc6)cn5)ccc4n3C)CC2)cc1` [Example 241, N-(6-{2-[4-(4-Methoxybenzoyl)piperazine-1-carbonyl]-1-methyl-1H-indol-5-yloxy}pyridin-3-yl)-N-methyl-4-trifluoromethylbenzamide], which melting point is on record?
Answer: 126 to 128 °C

Question: For `CN(c1ccc(Oc2ccc3cc(C(=O)N4CCN(Cc5ccc(OCC(F)(F)F)cc5)CC4)n(C)c3c2)nc1)S(=O)(=O)c1ccc(C(F)(F)F)cc1.Cl`, which melting point is on record?
Answer: 256.9 to 257.7 °C

Question: With `CN(c1ccc(Oc2ccc3cc(C(=O)N4CCN(Cc5ccc(OCC(F)(F)F)cc5)CC4)[nH]c3c2)nc1)S(=O)(=O)c1ccc(C(F)(F)F)cc1` [Example 39, N-Methyl-N-[6-(2-{4-[4-(2,2,2-trifluoroethoxy)benzyl]piperazine-1-carbonyl}-1H-indol-6-yloxy)pyridin-3-yl]-4-trifluoromethyl-benzenesulfonamide] as the molecule, how does the melting point read?
Answer: 200.1 to 200.2 °C

Question: For `CC(C)Oc1ccc(CN2CCN(C(=O)c3cc4cc(Oc5ccc(N(C)C(=O)c6ccc(C(F)(F)F)cc6)cn5)ccc4n3C)CC2)cc1.O=C(O)/C=C\C(=O)O` [Example 410, N-(6-{2-[4-(4-Isopropoxybenzyl)piperazine-1-carbonyl]-1-methyl-1H-indol-5-yloxy}pyridin-3-yl)-N-methyl-4-trifluoromethyl-benzamide maleate], which melting point is on record?
Answer: 140 to 142 °C
